Patent US9403830B2, “Inhibitors of leukotriene production” (Boehringer Ingelheim International GmbH, priority 2012, dated 2016)

What was measured:
[1] = molecular target: T1, human LTA4 hydrolase (Homo sapiens, UniProt P09960); assay: LTA4H Enzyme assay (peptidase, Arg-AMC cleavage); format: biochemical; settings: LTA4H enzyme 1 nM, Arg-AMC substrate 50 μM, room temperature 1 h, fluorescence 380/460 nm
T1 sequence (P09960 1-611): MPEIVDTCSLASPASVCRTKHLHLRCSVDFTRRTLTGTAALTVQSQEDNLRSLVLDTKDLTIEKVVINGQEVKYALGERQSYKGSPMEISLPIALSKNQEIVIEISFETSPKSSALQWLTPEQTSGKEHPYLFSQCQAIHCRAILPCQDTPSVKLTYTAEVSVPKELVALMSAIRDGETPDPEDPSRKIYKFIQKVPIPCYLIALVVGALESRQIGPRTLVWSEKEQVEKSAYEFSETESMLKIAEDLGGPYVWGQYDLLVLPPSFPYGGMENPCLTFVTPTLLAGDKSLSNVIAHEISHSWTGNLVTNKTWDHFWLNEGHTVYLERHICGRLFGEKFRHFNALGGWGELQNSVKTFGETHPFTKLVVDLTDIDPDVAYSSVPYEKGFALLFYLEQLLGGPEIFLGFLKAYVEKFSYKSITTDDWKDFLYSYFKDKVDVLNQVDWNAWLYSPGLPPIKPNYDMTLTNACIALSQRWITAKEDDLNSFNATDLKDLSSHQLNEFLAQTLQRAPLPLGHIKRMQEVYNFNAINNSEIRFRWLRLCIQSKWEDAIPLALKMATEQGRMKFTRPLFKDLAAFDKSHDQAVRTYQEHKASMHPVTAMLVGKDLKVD
Experimental: The compounds of the invention are assessed for the ability to interact with human LTA4 hydrolase in an enzymatic assay that measures the ability of the enzyme to cleave the peptide bond of arginyl-aminomethylcoumarin (Arg-AMC). LTA4H Enzyme (1 nM final), Arg-AMC substrate (50 μM final), and compound are combined in a reaction buffer (50 mM Tris-HCl (pH 7.5), 100 mM KCl, 0.5% bovine serum albumin) at room temperature for 1 h. The formation of product is assessed by measuring the fluorescence of aminomethylcoumarin product (excitation wavelength 380 nm/emission wavelength 460 nm). In general, the preferred potency range (IC50) of compounds in the LTA4H Enzyme assay is between 0.1 nM to 10 μM, the more preferred potency range is 0.1 nM to 0.1 μM, and the most preferred potency range is 0.1 nM to 10 nM.

[2] = tested on: LTB4 synthesis in human whole blood; assay: human whole blood (HWB) assay, inhibition of LTB4 production; format: cell-based; settings: heparinized human whole blood, calcimycin 20 μM stimulation, plasma LTB4
Experimental: The compounds of the invention are additionally tested in a human whole blood (HWB) assay to determine their ability to inhibit the synthesis of LTB4 in a cellular system. Compounds are combined with heparinized human whole blood and incubated for 15 minutes at 37° C. Calcimycin (20 μM final, prepared in phosphate-buffered saline, pH 7.4) is then added and the mixture is incubated for another 30 minutes at 37° C. The samples are centrifuged for 5 min at low speed (1500×g) and the plasma layer is removed. Plasma LTB4 concentrations are then measured using an antibody-based homogenous time-resolved fluorescence method (CisBio, Bedford, Mass.). In general, the preferred potency range (IC50) of compounds in the HWB assay is between 10 nM to 10 μM, the more preferred potency range is 10 nM to 1 μM, and the most preferred potency range is 10 nM to 100 nM.

| SMILES | IC50 [1] [nM] | IC50 [2] [nM] |
| --- | --- | --- |
| COCC(=O)N1CCN(Cc2ccc3cc(Oc4ccc(-c5ccn[nH]5)cn4)ccc3c2)CC1 [Example 1, 2-Methoxy-1-(4-{6-[5-(2H-pyrazol-3-yl)-pyridin-2-yloxy]-naphthalen-2-ylmethyl}-piperazin-1-yl)-ethanone] | 0.63 | 180 |
| CC(=O)N1CCN(Cc2ccc3cc(Oc4ccc(-c5ccn[nH]5)cn4)ccc3c2)CC1 [Example 2, 1-(4-{6-[5-(2H-Pyrazol-3-yl)-pyridin-2-yloxy]-naphthalen-2-ylmethyl}-piperazin-1-yl)-ethanone] | 0.39 | 130 |
| c1cc(-c2ccc(Oc3ccc4cc(CN5CCCC5)ccc4c3)nc2)[nH]n1 [Example 3, 5-(2H-Pyrazol-3-yl)-2-(6-pyrrolidin-1-ylmethyl-naphthalen-2-yloxy)-pyridine] | 0.34 | 120 |
| OC1CCN(Cc2ccc3cc(Oc4ccc(-c5ccn[nH]5)cn4)ccc3c2)CC1 [Example 4, 1-{6-[5-(2H-Pyrazol-3-yl)-pyridin-2-yloxy]-naphthalen-2-ylmethyl}-piperidin-4-ol] | 0.54 | 190 |
| NC(=O)C1CCN(Cc2ccc3cc(Oc4ccc(-c5ccn[nH]5)cn4)ccc3c2)CC1 [Example 5, 1-{6-[5-(2H-Pyrazol-3-yl)-pyridin-2-yloxy]-naphthalen-2-ylmethyl}-piperidine-4-carboxylic acid amide] | 0.46 | 220 |
| CC(=O)NC1CCN(Cc2ccc3cc(Oc4ccc(-c5ccn[nH]5)cn4)ccc3c2)CC1 [Example 6, N-(1-{6-[5-(2H-Pyrazol-3-yl)-pyridin-2-yloxy]-naphthalen-2-ylmethyl}-piperidin-4-yl)-acetamide] | 0.37 | 210 |
| O=C1[C@@H](O)CCN1C1CCN(Cc2ccc3cc(Oc4ccc(-c5ccn[nH]5)cn4)ccc3c2)CC1 [Example 7, (S)-3-Hydroxy-1-(1-{6-[5-(2H-pyrazol-3-yl)-pyridin-2-yloxy]-naphthalen-2-ylmethyl}-piperidin-4-yl)-pyrrolidin-2-one] | 0.68 | 180 |
| CN(C)CC1CCc2cc(Oc3ccc(-c4ccn[nH]4)cc3)ccc2O1 (centres unmarked) [Example 8, dimethyl-{6-[4-(2H-pyrazol-3-yl)-phenoxy]-chroman-2-ylmethyl}-amine] | 0.35 | 99 |
| NC(=O)C1CCN(CC2CCc3ccc(Oc4ccc(-c5ccn[nH]5)cn4)cc3O2)CC1 (centres unmarked) [Example 9, 1-{7-[5-(2H-Pyrazol-3-yl)-pyridin-2-yloxy]-chroman-2-ylmethyl}-piperidine-4-carboxylic acid amide] | 4.2 | 1300 |
| O=C(CO)N1CCN(Cc2ccc3cc(Oc4ccc(-c5ccn[nH]5)cc4)ccc3n2)CC1 [Example 10, 2-hydroxy-1-(4-{6-[4-(2H-pyrazol-3-yl)-phenoxy]-quinolin-2-ylmethyl}-piperazin-1-yl)-ethanone] | 0.53 | 150 |
| O=C1OCCN1C1CCN(Cc2ccc3cc(Oc4ccc(-c5ccn[nH]5)cn4)ccc3n2)CC1 [Example 11, 3-(1-{6-[5-(2H-pyrazol-3-yl)-pyridin-2-yloxy]-quinolin-2-ylmethyl}-piperidin-4-yl)-oxazolidin-2-one] | 0.65 | 180 |
| CCC(=O)N1CCN(Cc2ccc3cc(Oc4ccc(-c5ccn[nH]5)cc4)ccc3n2)CC1 [Example 12, 1-(4-{6-[4-(2H-pyrazol-3-yl)-phenoxy]-quinolin-2-ylmethyl}-piperazin-1-yl)-propan-1-one] | 0.45 | 190 |
| C[C@H](O)C(=O)N1CCN(Cc2ccc3cc(Oc4ccc(-c5ccn[nH]5)cc4)ccc3n2)CC1 [Example 13, (S)-2-hydroxy-1-(4-{6-[4-(2H-pyrazol-3-yl)-phenoxy]-quinolin-2-ylmethyl}-piperazin-1-yl)-propan-1-one] | 0.59 | 200 |
| c1cc(-c2ccc(Oc3ccc4cc(CN5CCOCC5)nn4c3)cc2)[nH]n1 [Example 14, 2-morpholin-4-ylmethyl-6-[4-(2H-pyrazol-3-yl)-phenoxy]-pyrazolo[1,5-a]pyridine] | 1.2 | 310 |
| O=C(N1CCN(Cc2ccc3cc(Oc4ccc(-c5ccn[nH]5)cc4)ccc3n2)CC1)C1(O)CC1 [Example 15, (1-hydroxy-cyclopropyl)-(4-{6-[4-(2H-pyrazol-3-yl)-phenoxy]-quinolin-2-ylmethyl}-piperazin-1-yl)-methanone] | 2.4 | 810 |
| O=C1OC[C@@H]2CN(Cc3ccc4cc(Oc5ccc(-c6ccn[nH]6)cn5)ccc4n3)CCN12 [Example 16, (S)-7-{6-[5-(2H-pyrazol-3-yl)-pyridin-2-yloxy]-quinolin-2-ylmethyl}-hexahydro-oxazolo[3,4-a]pyrazin-3-one] | 1.1 | 250 |
| O=S1(=O)CC2CC1CN2Cc1ccc2cc(Oc3ccc(-c4ccn[nH]4)cc3)ccc2n1 (centres unmarked) [Example 17, 2-(2,2-Dioxo-2-λ-6-thia-5-aza-bicyclo[2.2.1]hept-5-ylmethyl)-6-[4-(2H-pyrazol-3-yl)-phenoxy]-quinoline] | 1.1 | 430 |
| O=C1CCC2CN(Cc3ccc4cc(Oc5ccc(-c6ccn[nH]6)cn5)ccc4n3)CCN12 (centres unmarked) [Example 18, 2-{6-[5-(2H-pyrazol-3-yl)-pyridin-2-yloxy]-quinolin-2-ylmethyl}-hexahydro-pyrrolo[1,2-a]pyrazin-6-one] | 2 | 580 |
| c1cc(-c2ccc(Oc3ccc4nc(CN5CCCC5)ccc4c3)nc2)[nH]n1 [Example 19, 6-[5-(2H-Pyrazol-3-yl)-pyridin-2-yloxy]-2-pyrrolidin-1-ylmethyl-quinoline] | 0.24 | 70 |
| c1cc(-c2ccc(Oc3ccc4nc(CN5CCC6(COC6)C5)ccc4c3)nc2)[nH]n1 [Example 20, 2-(2-Oxa-6-aza-spiro[3.4]oct-6-ylmethyl)-6-[5-(2H-pyrazol-3-yl)-pyridin-2-yloxy]-quinoline] | 0.3 | 82 |
| c1cc(-c2ccc(Oc3ccc4nc(CN5CCC5)ccc4c3)nc2)[nH]n1 [Example 21, 2-Azetidin-1-ylmethyl-6-[5-(2H-pyrazol-3-yl)-pyridin-2-yloxy]-quinoline] | 0.22 | 86 |
| c1cc(-c2ccc(Oc3ccc4nc(CN5CCCCCC5)ccc4c3)nc2)[nH]n1 [Example 22, 2-Azepan-1-ylmethyl-6-[5-(2H-pyrazol-3-yl)-pyridin-2-yloxy]-quinoline] | 0.36 | 89 |
| c1cc(-c2ccc(Oc3ccc4nc(CN5CCCCC5)ccc4c3)nc2)[nH]n1 [Example 23, 2-Piperidin-1-ylmethyl-6-[5-(2H-pyrazol-3-yl)-pyridin-2-yloxy]-quinoline] | 0.48 | 90 |
| CC(=O)N1CC2CCC(C1)N2Cc1ccc2cc(Oc3ccc(-c4ccn[nH]4)cn3)ccc2n1 [Example 24, 1-(8-{6-[5-(2H-Pyrazol-3-yl)-pyridin-2-yloxy]-quinolin-2-ylmethyl}-3,8-diaza-bicyclo[3.2.1]oct-3-yl)-ethanone] | 0.33 | 99 |
| CNCc1ccc2cc(Oc3ccc(-c4ccn[nH]4)cn3)ccc2n1 [Example 25, Methyl-{6-[5-(2H-pyrazol-3-yl)-pyridin-2-yloxy]-quinolin-2-ylmethyl}-amine] | 0.5 | 110 |
